What all share (type): in vivo
One assay deals with Plasmopara viticola. In words: Long-term activity against Plasmopara viticola on grapevines. Particulars: 16 ppm, grapevines cv. Müller-Thurgau, inoculated 7 days after spraying; untreated control 75%. The text has this:
2) Long-term Activity Against Plasmopara viticola Leaves of potted grapevines cv. “Müller-Thurgau” were sprayed to runoff point with an aqueous active compound preparation which had been prepared from a stock solution comprising 10% of active compound, 63% of cyclohexanone and 27% of emulsifier. To assess the persistency of the substances, the plants were kept for 7 days in a greenhouse after the spray coating had dried on. Only then were the leaves inoculated with an aqueous zoospore suspension of Plasmopara viticola. The grapevines were then initially kept in a water vapor-saturated chamber at 24° C. for 48 hours and then in a greenhouse at 20-30° C. for 5 days. After this period of time, the plants were once more kept in a humid chamber for 16 hours to promote sporangiophore eruption. The extent of the infection on the undersides of the leaves was then assessed visually.

The next assay deals with pyricularia oryzae. Particulars: 16 ppm, rice seedlings cv. Tai-Nong 67, inoculated the next day, assessed after 6 days; untreated control 85%.
For assay [1], the system named is Erysiphe graminis forma specialis tritici. In words: Protective activity against Erysiphe graminis var. tritici (powdery mildew of wheat). To be noted: 16 ppm, sprayed 24 h before inoculation, seedlings cv. Frühgold, assessed after 7 days; untreated control 80%. Here is the method:
1) Protective Activity Against Erysiphe graminis var. tritici (Powdery Mildew of Wheat) Leaves of potted […] seedlings cv. “Frühgold” were sprayed to runoff point with an aqueous active compound preparation which had been prepared from a stock solution comprising 10% of active compound, 63% of cyclohexanone and 27% of emulsifier, and, 24 hours after the spray coating had dried on, dusted with spores of powdery mildew of wheat (Erysiphe graminis forma specialis tritici). The test plants were subsequently placed in a greenhouse at from 20 to 22° C. and a relative atmospheric humidity of 75 to 80%. After 7 days, the extent of mildew development was determined visually as % infection of the total leaf area.

Take `CO/C=C(/C(=O)OC)c1cccnc1Oc1ccn(-c2ccc(Cl)cc2)n1` [I.3, Methyl methoxy-[2-(1-(4-chlorophenyl)-3-pyrazolyloxy)pyridin-3-yl]acrylate]: the “infection on the undersides of the leaves” value in the assay with Plasmopara viticola is listed as “no infestation”. In addition, in the assay on pyricularia oryzae, the “infestation on the leaves” value is reported as 15%. The “infection (mildew development as % infection of the total leaf area)” value in assay [1] is given as 5%.

Values taken from US6362192B1, “2-(Pyrazolyloxy) -pyridin-3-ylacetic acid derivatives, agents containing the same and use thereof against noxious fungi and animal parasites” (BASF Aktiengesellschaft, priority 1998, dated 2002).
